Measured values from PubChem BioAssay AID206 (DTP/NCI, 2004).
Several values for one entry are separate records, joined by “and”; a condition that tells them apart may be missing. Equal values may be shown once. Records with an inconclusive call do not appear.

Test system: nude mice, HT29 intrarenal xenograft, tumor weight T/C
Assay: NCI In Vivo Anticancer Drug Screen. Data for tumor model HT29;CX-1 Human Adenocarcinoma (MER+) (intrarenal inoculation) in NU/NU Swiss (nude) mice
Conditions: endpoint: mean tumor weight change, higher = larger tumour
Method in brief: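 T/C = treated-group value ÷ vehicle-group value, using tumor size or survival.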

[1] = dose: 225.0 mg/kg/injection, schedule: Q04DX004 (sc), vehicle: Klucel (hydroxypropylcellulose) (HPC)
[2] = dose: 450.0 mg/kg/injection, schedule: Q04DX004 (sc), vehicle: Klucel (hydroxypropylcellulose) (HPC)
[3] = dose: 900.0 mg/kg/injection, schedule: Q04DX004 (sc), vehicle: Klucel (hydroxypropylcellulose) (HPC)
[4] = dose: 1800.0 mg/kg/injection, schedule: Q04DX004 (sc), vehicle: Klucel (hydroxypropylcellulose) (HPC)
[5] = dose: 300.0 mg/kg/injection, schedule: Q04DX004 (sc), vehicle: saline with Tween-80
[6] = dose: 600.0 mg/kg/injection, schedule: Q04DX004 (sc), vehicle: saline with Tween-80
[7] = dose: 100.0 mg/kg/injection, schedule: Q04DX004 (sc), vehicle: saline with Tween-80
[8] = dose: 150.0 mg/kg/injection, schedule: Q04DX004 (sc), vehicle: Klucel (hydroxypropylcellulose) (HPC)
[9] = dose: 300.0 mg/kg/injection, schedule: Q04DX004 (sc), vehicle: Klucel (hydroxypropylcellulose) (HPC)
[10] = dose: 600.0 mg/kg/injection, schedule: Q04DX004 (sc), vehicle: Klucel (hydroxypropylcellulose) (HPC)
[11] = dose: 50.0 mg/kg/injection, schedule: Q04DX004 (sc), vehicle: saline with Tween-80
[12] = dose: 200.0 mg/kg/injection, schedule: Q04DX004 (sc), vehicle: saline with Tween-80
[13] = dose: 400.0 mg/kg/injection, schedule: Q04DX004 (sc), vehicle: saline with Tween-80
[14] = dose: 100.0 mg/kg/injection, schedule: Q04DX004 (sc), vehicle: saline
[15] = dose: 200.0 mg/kg/injection, schedule: Q04DX004 (sc), vehicle: saline
[16] = dose: 400.0 mg/kg/injection, schedule: Q04DX004 (sc), vehicle: saline

CCCCCC(=O)O[C@]1(C(C)=O)CC[C@H]2[C@@H]3CCC4=CC(=O)CC[C@]4(C)[C@H]3CC[C@@]21C
T/C [1]: 73 % of control | T/C [2]: 46 % of control | T/C [3]: 58 % of control | T/C [4]: 36 % of control

CC(=O)Nc1ccc(O)c(O)c1
T/C (dose: 150.0 mg/kg/injection, schedule: Q04DX004 (sc), vehicle: saline with Tween-80): 257 % of control | T/C [5]: 56 % of control | T/C [6]: 231 % of control | T/C (dose: 2400.0 mg/kg/injection, schedule: Q04DX004 (sc), vehicle: saline with Tween-80): 110 % of control

C=C(C)C(=NC(C)(C)C)Nc1ccccc1
T/C [7]: 52 % of control

Cc1ccc(S(=O)(=O)N/N=C/C(Br)=C(/Br)C(=O)O)cc1
T/C [8]: 47 % of control | T/C [9]: 55 % of control | T/C [10]: 22 % of control

C=C(NC(=O)C(=C)NC(=O)c1csc(C2=NC3c4csc(n4)C4NC(=O)c5csc(n5)C(C(C)(O)C(C)O)NC(=O)C5CSC(=N5)/C(=C/C)NC(=O)C(C(C)O)NC(=O)c5csc(n5)C3(CC2)NC(=O)C(C)NC(=O)C(=C)NC(=O)C(=C)NC(=O)C(C(C)C)NC2C=Cc3c(C(C)O)cc(nc3C2O)C(=O)OC4C)n1)C(N)=O (stereo not drawn)
T/C (dose: 125.0 mg/kg/injection, schedule: Q04DX004 (sc), vehicle: suspension in saline): 789 % of control | T/C (dose: 250.0 mg/kg/injection, schedule: Q04DX004 (sc), vehicle: suspension in saline): 419 % of control | T/C (dose: 500.0 mg/kg/injection, schedule: Q04DX004 (sc), vehicle: saline): 59 % of control | T/C (dose: 750.0 mg/kg/injection, schedule: Q04DX004 (sc), vehicle: saline): 97 % of control | T/C (dose: 750.0 mg/kg/injection, schedule: Q04DX004 (sc), vehicle: suspension in saline): 73 % of control | T/C (dose: 1000.0 mg/kg/injection, schedule: Q04DX004 (sc), vehicle: saline): 65 % of control | T/C (dose: 1250.0 mg/kg/injection, schedule: Q04DX004 (sc), vehicle: saline): 91 % of control | T/C (dose: 1250.0 mg/kg/injection, schedule: Q04DX004 (sc), vehicle: suspension in saline): 82 % of control

COc1cc(C[C@H]2c3cc(OC)c(OC)cc3CCN2C)c(Oc2cc3c(cc2OC)-c2c(OC)c(OC)cc4c2[C@H](C3)N(C)CC4)cc1OC
T/C (dose: 100.0 mg/kg/injection, schedule: Q01DX010 (sc), vehicle: saline with Tween-80): 100 % of control | T/C (dose: 200.0 mg/kg/injection, schedule: Q01DX010 (sc), vehicle: saline with Tween-80): 45 % of control | T/C (dose: 400.0 mg/kg/injection, schedule: Q01DX010 (sc), vehicle: saline with Tween-80): 67 % of control | T/C (dose: 800.0 mg/kg/injection, schedule: Q01DX010 (sc), vehicle: saline with Tween-80): 63 % of control

CCOC(=O)CNC(=O)CCCCSc1ncnc2nc[nH]c12
T/C (dose: 225.0 mg/kg/injection, schedule: Q04DX004 (sc), vehicle: saline with Tween-80): 162 % of control | T/C (dose: 450.0 mg/kg/injection, schedule: Q04DX004 (sc), vehicle: saline with Tween-80): 103 % of control

CSc1ncnc2c1ncn2C1OC(CO)C(O)C1O (stereo not drawn)
T/C (dose: 37.5 mg/kg/injection, schedule: Q04DX004 (sc), vehicle: saline + alcohol): 74 % of control and 77 % of control and 80 % of control | T/C (dose: 125.0 mg/kg/injection, schedule: Q04DX004 (sc), vehicle: saline + alcohol): 154 % of control | T/C (dose: 175.0 mg/kg/injection, schedule: Q04DX004 (sc), vehicle: saline + alcohol): 65 % of control

OC1CCCC2CCC[N-]C12.OC1CCCC2CCC[N-]C12.[Mn+2] (stereo not drawn)
T/C [8]: 114 % of control | T/C [10]: 124 % of control

CC(C)NC(=O)N(CCCCBr)N=O
T/C (dose: 75.0 mg/kg/injection, schedule: Q04DX004 (sc), vehicle: Klucel (hydroxypropylcellulose) (HPC)): 174 % of control | T/C [8]: 182 % of control | T/C [9]: 91 % of control | T/C [10]: 108 % of control

CC[C@](C)(O)C(=O)O[C@H]1C(=O)O[C@@H]2C[C@H]3C(C)=CC(=O)[C@@H](O)[C@]3(C)[C@H]3[C@@]4(O)OC[C@]32[C@@H]1[C@@H](C)[C@H]4O
T/C (dose: 0.25 mg/kg/injection, schedule: Q01DX010 (sc), vehicle: Klucel (hydroxypropylcellulose) (HPC)): 55 % of control | T/C (dose: 0.5 mg/kg/injection, schedule: Q01DX010 (sc), vehicle: Klucel (hydroxypropylcellulose) (HPC)): 80 % of control | T/C (dose: 1.0 mg/kg/injection, schedule: Q01DX010 (sc), vehicle: Klucel (hydroxypropylcellulose) (HPC)): 61 % of control | T/C (dose: 2.0 mg/kg/injection, schedule: Q01DX010 (sc), vehicle: Klucel (hydroxypropylcellulose) (HPC)): 73 % of control

CC1(c2ccc(Cl)cc2)OC(=O)C(=Cc2ccc([N+](=O)[O-])s2)C(=O)O1 (stereo not drawn)
T/C [11]: 34 % of control | T/C [7]: 53 % of control | T/C [12]: 77 % of control | T/C [13]: 60 % of control

CCN(CC)CCC(=O)c1ccccc1
T/C [11]: 65 % of control | T/C [7]: 60 % of control | T/C [12]: 50 % of control | T/C [13]: 77 % of control

CCNC(=O)[B-][N+](C)(C)C
T/C [14]: 94 % of control | T/C [15]: 60 % of control | T/C [16]: 43 % of control

NC(=O)c1[nH]nc(C2OC(CO)C(O)C2O)c1O (stereo not drawn)
T/C (dose: 10.0 mg/kg/injection, schedule: Q04DX004 (sc), vehicle: saline): 73 % of control

O=C[C@@H](CO)O[C@H](C=O)n1cnc2c(=O)[nH]cnc21
T/C (dose: 225.0 mg/kg/injection, schedule: Q04DX004 (sc), vehicle: saline): 76 % of control | T/C (dose: 450.0 mg/kg/injection, schedule: Q04DX004 (sc), vehicle: saline): 86 % of control | T/C (dose: 900.0 mg/kg/injection, schedule: Q04DX004 (sc), vehicle: saline): 93 % of control

Nc1ccccc1N
T/C (dose: 100.0 mg/kg/injection, schedule: Q01DX010 (sc), vehicle: Klucel (hydroxypropylcellulose) (HPC)): 206 % of control | T/C (dose: 200.0 mg/kg/injection, schedule: Q01DX010 (sc), vehicle: Klucel (hydroxypropylcellulose) (HPC)): 115 % of control

N=[N+]=CC(=O)OCC(N)C(=O)O (stereo not drawn)
T/C (dose: 3.13 mg/kg/injection, schedule: Q01DX010 (sc), vehicle: saline): 212 % of control | T/C (dose: 6.25 mg/kg/injection, schedule: Q01DX010 (sc), vehicle: saline): 87 % of control | T/C (dose: 12.5 mg/kg/injection, schedule: Q01DX010 (sc), vehicle: saline): 85 % of control | T/C (dose: 25.0 mg/kg/injection, schedule: Q01DX010 (sc), vehicle: saline): 123 % of control

COc1cc(OC)c(OC)cc1/C=C\c1ccnc2ccccc12
T/C [1]: 79 % of control | T/C [2]: 110 % of control | T/C [3]: 83 % of control | T/C [4]: 67 % of control

CN(C)C=O
T/C (dose: 400.0 mg/kg/injection, schedule: Q01DX010 (sc), vehicle: saline): 186 % of control | T/C (dose: 3200.0 mg/kg/injection, schedule: Q01DX010 (sc), vehicle: saline): 48 % of control and 49 % of control

CCN(CC)CCCNc1nccc2c(C)c3[nH]c4ccncc4c3cc12
T/C (dose: 2.5 mg/kg/injection, schedule: Q01DX010 (sc), vehicle: other): 117 % of control | T/C (dose: 5.0 mg/kg/injection, schedule: Q01DX010 (sc), vehicle: other): 108 % of control | T/C (dose: 10.0 mg/kg/injection, schedule: Q01DX010 (sc), vehicle: other): 56 % of control

COc1ccc(C[C@H](N)C(=O)NC2C(CO)OC(n3cnc4c(N(C)C)ncnc43)C2O)cc1 (stereo partly drawn)
T/C [14]: 174 % of control | T/C [15]: 96 % of control | T/C [16]: 185 % of control

O=C(Nc1nncs1)c1cccs1
T/C [11]: 61 % of control | T/C [7]: 93 % of control | T/C [12]: 72 % of control | T/C [5]: 106 % of control | T/C [13]: 95 % of control | T/C [6]: 121 % of control | T/C (dose: 1200.0 mg/kg/injection, schedule: Q04DX004 (sc), vehicle: saline with Tween-80): 110 % of control

CCN(CC)CCNc1ccc(C)c2sc3ccccc3c(=O)c12
T/C (dose: 100.0 mg/kg/injection, schedule: Q01DX010 (sc), vehicle: saline): 87 % of control

ClC1=C(Cl)C(Cl)=C(Cl)C1=Cc1ccccc1
T/C [11]: 104 % of control

[Cl][Pt+2][Cl].[NH-]CC1(C[NH-])CCC1
T/C (dose: 12.5 mg/kg/injection, schedule: Q04DX004 (sc), vehicle: suspension in saline): 87 % of control | T/C (dose: 25.0 mg/kg/injection, schedule: Q04DX004 (sc), vehicle: suspension in saline): 61 % of control
